Among the data in US10689377B2 (Mirati Therapeutics, Inc., priority 2017, dated 2020) are IC50 values, retold here.

pIC50: −log10 of the molar value. Where only a bound is given, the exact number is not on record here.

Sequence of KRas G12C (P01116 1-188 isoform P01116-2 G12C): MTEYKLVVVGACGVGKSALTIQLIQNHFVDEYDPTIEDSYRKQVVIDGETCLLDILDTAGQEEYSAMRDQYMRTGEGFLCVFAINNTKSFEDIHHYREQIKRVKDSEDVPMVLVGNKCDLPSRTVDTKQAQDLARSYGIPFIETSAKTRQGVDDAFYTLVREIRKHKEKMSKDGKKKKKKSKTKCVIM

This experiment addresses KRas G12C (Homo sapiens, UniProt P01116, G12C). Briefly: Cellular inhibition of KRas G12C measured by Phospho-ERK in NCI-H358 cells. It is filed as cell-based. Particulars: pERK(Thr202/Tyr204) normalized with GAPDH, NCI-H358 cells, 3 hours; read-out: IC50. Summed up: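 NCI-H358 cells treated 3 h with compound (0.5% DMSO final), then fixed and methanol-permeabilised. In-cell immunofluorescence measured pERK(Thr202/Tyr204) normalised to GAPDH as percent of DMSO control. IC50 from a 4-parameter dose-response fit.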
A word on the pIC50: it is −log10 of the IC50, conventionally taken in molar units. For `C=CC(=O)N1CCN(c2nc(OCCCN3CCC(OC)C3)nc3c2CCN(c2cc(O)cc4ccccc24)C3)CC1` (stereo not drawn) [Example 137, 1-[4-[7-(3-hydroxy-1-naphthyl)-2-[3-(3-methoxypyrrolidin-1-yl)propoxy]-6,8-dihydro-5H-pyrido[3,4-d]pyrimidin-4-yl]piperazin-1-yl]prop-2-en-1-one], the pIC50 was less than 6.00.
In the case of `C=C(F)C(=O)N1CCN(c2nc(OC[C@@H]3CCCN3C)nc3c2CCN(c2cncc4cc(F)ccc24)C3)C[C@@H]1CC#N` [Example 618, 2-[(2S)-4-[7-(7-fluoro-4-isoquinolyl)-2-[[(2S)-1-methylpyrrolidin-2-yl]methoxy]-6,8-dihydro-5H-pyrido[3,4-d]pyrimidin-4-yl]-1-(2-fluoroprop-2-enoyl)piperazin-2-yl]acetonitrile] it was less than 6.00; in that of `C=CC(=O)N1CCN(c2nc(OC[C@@H]3CCCN3C)nc3c2CCN(c2ccc(F)c(C)c2C)C3)C[C@@H]1CC#N` [Example 424, 2-((S)-1-acryloyl-4-(7-(4-fluoro-2,3-dimethylphenyl)-2-(((S)-1-methylpyrrolidin-2-yl)methoxy)-5,6,7,8-tetrahydropyrido[3,4-d]pyrimidin-4-yl)piperazin-2-yl)acetonitrile], 6.00 to 10.00.
With `C=CC(=O)N1CCN(c2nc(OC[C@]3(C)CCCN3C)nc3c2CCN(c2cccc4ccccc24)C3)CC1CC#N` (stereo partly drawn) [Example 395, 2-(1-acryloyl-4-(2-(((S)-1,2-dimethylpyrrolidin-2-yl)methoxy)-7-(naphthalen-1-yl)-5,6,7,8-tetrahydropyrido[3,4-d]pyrimidin-4-yl)piperazin-2-yl)acetonitrile], the pIC50 is 6.00 to 10.00.
The value for `C=CC(=O)N1CCN(c2nc(OCCN3CC(F)(F)C3)nc3c2CCN(c2cc(O)cc4ccccc24)C3)CC1` [Example 138, 1-[4-[2-[2-(3,3-difluoroazetidin-1-yl)ethoxy]-7-(3-hydroxy-1-naphthyl)-6,8-dihydro-5H-pyrido[3,4-d]pyrimidin-4-yl]piperazin-1-yl]prop-2-en-1-one] was less than 6.00; that for `C=CC(=O)N1CCN(c2nc(OC[C@@H]3CCCN3C)nc3c2CCN(c2cccc(Cl)c2C(F)(F)F)C3)CC1CC#N` (stereo partly drawn) [Example 414, 2-(1-acryloyl-4-(7-(3-chloro-2-(trifluoromethyl)phenyl)-2-(((S)-1-methylpyrrolidin-2-yl)methoxy)-5,6,7,8-tetrahydropyrido[3,4-d]pyrimidin-4-yl)piperazin-2-yl)acetonitrile] was 6.00 to 10.00; that for `C=CC(=O)N1CCN(c2nc(OCCN3CCCCC3)nc3c2CCN(c2cccc4ccccc24)C3)C[C@@H]1CC#N` [Example 409, (S)-2-(1-acryloyl-4-(7-(naphthalen-1-yl)-2-(2-(piperidin-1-yl)ethoxy)-5,6,7,8-tetrahydropyrido[3,4-d]pyrimidin-4-yl)piperazin-2-yl)acetonitrile] was 6.00 to 10.00.
In the case of `CN(C)C/C=C/C(=O)N1CCN(c2nc(OC[C@@H]3CCCN3C)nc3c2CCN(c2cc(O)cc4ccccc24)C3)CC1` [Example 199, (S,E)-4-(dimethylamino)-1-(4-(7-(3-hydroxynaphthalen-1-yl)-2-((1-methylpyrrolidin-2-yl)methoxy)-5,6,7,8-tetrahydropyrido[3,4-d]pyrimidin-4-yl)piperazin-1-yl)but-2-en-1-one] it was less than 6.00.
With `C=CC(=O)N1CCN(c2nc(OCCCCN(C)C)nc3c2CCN(c2cc(O)cc4ccccc24)C3)CC1` [Example 40, 1-(4-(2-(4-(dimethylamino)butoxy)-7-(3-hydroxynaphthalen-1-yl)-5,6,7,8-tetrahydropyrido[3,4-d]pyrimidin-4-yl)piperazin-1-yl)prop-2-en-1-one], the pIC50 is 6.00 to 10.00.
The value for `Cc1cccc2cccc(N3CCc4c(nc(OC[C@@H]5CCCN5C)nc4N4CCN(C(=O)/C=C/C(N)=O)[C@@H](CC#N)C4)C3)c12` [Example 500, (E)-4-((S)-2-(cyanomethyl)-4-(7-(8-methylnaphthalen-1-yl)-2-(((S)-1-methylpyrrolidin-2-yl)methoxy)-5,6,7,8-tetrahydropyrido[3,4-d]pyrimidin-4-yl)piperazin-1-yl)-4-oxobut-2-enamide] was 6.00 to 10.00.
As for `CCN1CCC[C@H]1COc1nc2c(c(N3CCN(C(=O)/C=C/CN(C)C)[C@@H](CC#N)C3)n1)CCN(c1cccc3ccccc13)C2` [Example 401, 2-((S)-1-((E)-4-(dimethylamino)but-2-enoyl)-4-(2-(((S)-1-ethylpyrrolidin-2-yl)methoxy)-7-(naphthalen-1-yl)-5,6,7,8-tetrahydropyrido[3,4-d]pyrimidin-4-yl)piperazin-2-yl)acetonitrile], the pIC50 is 6.00 to 10.00.
In the case of `C=CC(=O)N1CCN(c2nc(O[C@H](C)CN3CC[C@H](O)C3)nc3c2CCN(c2cc(O)cc4ccccc24)C3)CC1` [Example 65, 1-(4-(7-(3-hydroxynaphthalen-1-yl)-2-(((R)-1-((S)-3-hydroxypyrrolidin-1-yl)propan-2-yl)oxy)-5,6,7,8-tetrahydropyrido[3,4-d]pyrimidin-4-yl)piperazin-1-yl)prop-2-en-1-one] it was less than 6.00; in that of `C=CC(=O)N1CCN(c2nc(OC(C)CNC)nc3c2CCN(c2cc(O)cc4ccccc24)C3)CC1` (stereo not drawn) [Example 70, 1-(4-(7-(3-hydroxynaphthalen-1-yl)-2-((1-(methylamino)propan-2-yl)oxy)-5,6,7,8-tetrahydropyrido[3,4-d]pyrimidin-4-yl)piperazin-1-yl)prop-2-en-1-one], less than 6.00.
In the case of `C=CC(=O)N1CCN(c2nc(O[C@H](C)[C@H]3CCCN3C)nc3c2CCN(c2cc(O)cc4ccccc24)C3)CC1` [Example 129, 1-[4-[7-(3-hydroxy-1-naphthyl)-2-[(1R)-1-[(2R)-1-methylpyrrolidin-2-yl]ethoxy]-6,8-dihydro-5H-pyrido[3,4-d]pyrimidin-4-yl]piperazin-1-yl]prop-2-en-1-one] it was 6.00 to 10.00.
The value for `C=CC(=O)N1CCN(c2nc(OC[C@@H]3CCC(=O)N3)nc3c2CCN(c2cc(O)cc4ccccc24)C3)CC1` [Example 57, (S)-5-(((4-(4-acryloylpiperazin-1-yl)-7-(3-hydroxynaphthalen-1-yl)-5,6,7,8-tetrahydropyrido[3,4-d]pyrimidin-2-yl)oxy)methyl)pyrrolidin-2-one] was less than 6.00.
`C=CC(=O)N1CCN(c2nc(OC[C@@H]3C[C@H](F)CN3C)nc3c2CCN(c2cccc4ccccc24)C3)CC1CC#N` (stereo partly drawn) [Example 221, 2-(1-acryloyl-4-(2-(((2S,4S)-4-fluoro-1-methylpyrrolidin-2-yl)methoxy)-7-(naphthalen-1-yl)-5,6,7,8-tetrahydropyrido[3,4-d]pyrimidin-4-yl)piperazin-2-yl)acetonitrile]: the pIC50 was 6.00 to 10.00.
`C=CC(=O)N1CCN(c2nc(OC[C@@H]3CCNC3)nc3c2CCN(c2cc(O)cc4ccccc24)C3)CC1` [Example 146, 1-[4-[7-(3-hydroxy-1-naphthyl)-2-[[(3R)-pyrrolidin-3-yl]methoxy]-6,8-dihydro-5H-pyrido[3,4-d]pyrimidin-4-yl]piperazin-1-yl]prop-2-en-1-one]: the pIC50 was less than 6.00.
For `C=CC(=O)N1CCN(c2nc(OC[C@@H]3CCCN3C)nc3c2CCN(c2cccc4ccccc24)C3)C[C@@H]1CCOC` [Example 433, 1-((S)-2-(2-methoxyethyl)-4-(2-(((S)-1-methylpyrrolidin-2-yl)methoxy)-7-(naphthalen-1-yl)-5,6,7,8-tetrahydropyrido[3,4-d]pyrimidin-4-yl)piperazin-1-yl)prop-2-en-1-one], the pIC50 is less than 6.00.
The value for `Cc1cccc2cccc(N3CCc4c(nc(OC[C@@H]5CCCN5C)nc4N4CCN(C(=O)/C=C/c5cnn(C)c5)[C@@H](CC#N)C4)C3)c12` [Example 494, 2-((S)-1-((E)-3-(1-methyl-1H-pyrazol-4-yl)acryloyl)-4-(7-(8-methylnaphthalen-1-yl)-2-(((S)-1-methylpyrrolidin-2-yl)methoxy)-5,6,7,8-tetrahydropyrido[3,4-d]pyrimidin-4-yl)piperazin-2-yl)acetonitrile] was less than 6.00.
In the case of `C/C=C/C(=O)N1CCN(c2nc(OC[C@@H]3CCCN3C)nc3c2CCN(c2cc(O)cc4ccccc24)C3)CC1` [Example 198, (S,E)-1-(4-(7-(3-hydroxynaphthalen-1-yl)-2-((1-methylpyrrolidin-2-yl)methoxy)-5,6,7,8-tetrahydropyrido[3,4-d]pyrimidin-4-yl)piperazin-1-yl)but-2-en-1-one] it was less than 6.00.
In the case of `C=CC(=O)N1CCN(c2nc(OC[C@@H]3CCCN3CC)nc3c2CCN(c2ccc(F)c4ccccc24)C3)CC1CC#N` (stereo partly drawn) [Example 322, 2-(1-acryloyl-4-(2-(((S)-1-ethylpyrrolidin-2-yl)methoxy)-7-(4-fluoronaphthalen-1-yl)-5,6,7,8-tetrahydropyrido[3,4-d]pyrimidin-4-yl)piperazin-2-yl)acetonitrile] it was 6.00 to 10.00.
In the case of `C=CC(=O)N1[C@@H]2CC[C@H]1CN(c1nc(OC(C)CN(C)C)nc3c1CCN(c1cc(O)cc4ccccc14)C3)C2` (stereo partly drawn) [Example 45, 1-((1R,5S)-3-(2-((1-(dimethylamino)propan-2-yl)oxy)-7-(3-hydroxynaphthalen-1-yl)-5,6,7,8-tetrahydropyrido[3,4-d]pyrimidin-4-yl)-3,8-diazabicyclo[3.2.1]octan-8-yl)prop-2-en-1-one], the negative logarithm of the IC50 (pIC50) was less than 6.00.
In the case of `C=CC(=O)N1CCN(c2ncnc3c2CCN(c2cc(O)ccc2F)C3)CC1` [Example 5, 1-(4-(7-(2-fluoro-5-hydroxyphenyl)-5,6,7,8-tetrahydropyrido[3,4-d]pyrimidin-4-yl)piperazin-1-yl)prop-2-en-1-one] it was less than 6.00; in that of `C=CC(=O)N1CCN(c2nc(OC[C@@H]3CCCN3C)nc3c2CCN(c2cnccc2C(F)(F)F)C3)CC1CC#N` (stereo partly drawn) [Example 212, 2-(1-acryloyl-4-(2-(((S)-1-methylpyrrolidin-2-yl)methoxy)-7-(4-(trifluoromethyl)pyridin-3-yl)-5,6,7,8-tetrahydropyrido[3,4-d]pyrimidin-4-yl)piperazin-2-yl)acetonitrile], 6.00 to 10.00.
